In ChEMBL document CHEMBL1139978, “Synthesis and radiopharmacological characterization of [11C]AL-438 as a nonsteroidal ligand for imaging brain glucocorticoid receptors” (Bioorg Med Chem Lett, 2007):

Tests used:
Pituitary gland [1] = test: Biodistribution in corticosterone pretreated Wistar rat pituitary at 20 MBq, iv after 5 mins; assay type: ADME, organism-based; settings: in vivo
Adrenal [2] = test: Biodistribution in Wistar rat adrenal at 20 MBq, iv after 60 mins; assay type: ADME, organism-based, Adrenal tissue; settings: in vivo, 1 h
Rattus norvegicus [3] = test: Biodistribution in corticosterone pretreated Wistar rat fat at 20 MBq, iv after 5 mins; assay type: ADME, organism-based, Adipose tissue; settings: in vivo
Adrenal [4] = test: Biodistribution in corticosterone pretreated Wistar rat adrenal at 20 MBq, iv after 60 mins; assay type: ADME, organism-based, Adrenal tissue; settings: in vivo, 1 h
Thymus [5] = test: Biodistribution in corticosterone pretreated Wistar rat thymus at 20 MBq, iv after 60 mins; assay type: ADME, organism-based; settings: in vivo, 1 h
Liver [6] = test: Biodistribution in corticosterone pretreated Wistar rat liver at 20 MBq, iv after 5 mins; assay type: ADME, organism-based; settings: in vivo
Thymus [7] = test: Biodistribution in Wistar rat thymus at 20 MBq, iv after 5 mins; assay type: ADME, organism-based; settings: in vivo
Lung [8] = test: Biodistribution in Wistar rat lung at 20 MBq, iv after 60 mins; assay type: ADME, organism-based; settings: in vivo, 1 h
Heart [9] = test: Biodistribution in Wistar rat heart at 20 MBq, iv after 5 mins; assay type: ADME, organism-based; settings: in vivo
Rattus norvegicus [10] = test: Biodistribution in Wistar rat testis at 20 MBq, iv after 60 mins; assay type: ADME, organism-based; settings: in vivo, 1 h
Cerebellum [11] = test: Biodistribution in Wistar rat cerebellum at 20 MBq, iv after 60 mins; assay type: ADME, organism-based; settings: in vivo, 1 h
Cortex = test: Biodistribution in Wistar rat cortex at 20 MBq, iv after 5 mins; assay type: ADME, organism-based; settings: in vivo
Rattus norvegicus [12] = test: Biodistribution in corticosterone pretreated Wistar rat fat at 20 MBq, iv after 60 mins; assay type: ADME, organism-based, Adipose tissue; settings: in vivo, 1 h
Thymus [13] = test: Biodistribution in Wistar rat thymus at 20 MBq, iv after 60 mins; assay type: ADME, organism-based; settings: in vivo, 1 h
Femur = test: Biodistribution in Wistar rat femur at 20 MBq, iv after 60 mins; assay type: ADME, organism-based; settings: in vivo, 1 h
Cerebellum [14] = test: Biodistribution in corticosterone pretreated Wistar rat cerebellum at 20 MBq, iv after 60 mins; assay type: ADME, organism-based; settings: in vivo, 1 h
Heart [15] = test: Biodistribution in Wistar rat heart at 20 MBq, iv after 60 mins; assay type: ADME, organism-based; settings: in vivo, 1 h
Adrenal [16] = test: Biodistribution in Wistar rat adrenal at 20 MBq, iv after 5 mins; assay type: ADME, organism-based, Adrenal tissue; settings: in vivo
Rattus norvegicus [17] = test: Biodistribution in Wistar rat fat at 20 MBq, iv after 5 mins; assay type: ADME, organism-based, Adipose tissue; settings: in vivo
Kidney [18] = test: Biodistribution in corticosterone pretreated Wistar rat kidney at 20 MBq, iv after 5 mins; assay type: ADME, organism-based; settings: in vivo
Harderian gland [19] = test: Biodistribution in corticosterone pretreated Wistar rat harderian gland at 20 MBq, iv after 60 mins; assay type: ADME, organism-based; settings: in vivo, 1 h
Rattus norvegicus [20] = test: Biodistribution in Wistar rat brown fat at 20 MBq, iv after 60 mins; assay type: ADME, organism-based, Brown adipose tissue; settings: in vivo, 1 h
Liver [21] = test: Biodistribution in Wistar rat liver at 20 MBq, iv after 60 mins; assay type: ADME, organism-based; settings: in vivo, 1 h
Pituitary gland [22] = test: Biodistribution in corticosterone pretreated Wistar rat pituitary at 20 MBq, iv after 60 mins; assay type: ADME, organism-based; settings: in vivo, 1 h
Muscle tissue [23] = test: Biodistribution in corticosterone pretreated Wistar rat muscle at 20 MBq, iv after 5 mins; assay type: ADME, organism-based; settings: in vivo
Rattus norvegicus [24] = test: Biodistribution in Wistar rat fat at 20 MBq, iv after 60 mins; assay type: ADME, organism-based, Adipose tissue; settings: in vivo, 1 h
Kidney [25] = test: Biodistribution in Wistar rat kidney at 20 MBq, iv after 60 mins; assay type: ADME, organism-based; settings: in vivo, 1 h
Rattus norvegicus [26] = test: Biodistribution in Wistar rat testis at 20 MBq, iv after 5 mins; assay type: ADME, organism-based; settings: in vivo
Hippocampus = test: Biodistribution in Wistar rat hippocampus at 20 MBq, iv after 5 mins; assay type: ADME, organism-based; settings: in vivo
Muscle tissue [27] = test: Biodistribution in Wistar rat muscle at 20 MBq, iv after 5 mins; assay type: ADME, organism-based; settings: in vivo
Spleen [28] = test: Biodistribution in Wistar rat spleen at 20 MBq, iv after 60 mins; assay type: ADME, organism-based; settings: in vivo, 1 h
Harderian gland [29] = test: Biodistribution in Wistar rat harderian gland at 20 MBq, iv after 5 mins; assay type: ADME, organism-based; settings: in vivo
Spleen [30] = test: Biodistribution in corticosterone pretreated Wistar rat spleen at 20 MBq, iv after 5 mins; assay type: ADME, organism-based; settings: in vivo
Rattus norvegicus [31] = test: Biodistribution in corticosterone pretreated Wistar rat testis at 20 MBq, iv after 60 mins; assay type: ADME, organism-based; settings: in vivo, 1 h
Muscle tissue [32] = test: Biodistribution in corticosterone pretreated Wistar rat muscle at 20 MBq, iv after 60 mins; assay type: ADME, organism-based; settings: in vivo, 1 h
Muscle tissue [33] = test: Biodistribution in Wistar rat muscle at 20 MBq, iv after 60 mins; assay type: ADME, organism-based; settings: in vivo, 1 h
Thymus [34] = test: Biodistribution in corticosterone pretreated Wistar rat thymus at 20 MBq, iv after 5 mins; assay type: ADME, organism-based; settings: in vivo
Pancreas = test: Biodistribution in corticosterone pretreated Wistar rat pancreas at 20 MBq, iv after60 mins; assay type: ADME, organism-based; settings: in vivo, 1 h
Rattus norvegicus [35] = test: Biodistribution in Wistar rat rest of brain at 20 MBq, iv after 5 mins; assay type: ADME, organism-based; settings: in vivo
Lung [36] = test: Biodistribution in Wistar rat lung at 20 MBq, iv after 5 mins; assay type: ADME, organism-based; settings: in vivo

**Q.** How did the Drug uptake (Pituitary gland [1]) turn out when C=CCC1Oc2cccc(O[11CH3])c2-c2ccc3c(c21)C(C)=CC(C)(C)N3 (stereo not given) was run?
**A.** 2.45 % ID/g

**Q.** What about the Drug uptake (Adrenal [2]) of the same compound?
**A.** 4.4 % ID/g

**Q.** And the Drug uptake (Rattus norvegicus [3])?
**A.** 1.51 % ID/g

**Q.** And the Drug uptake (Adrenal [4])?
**A.** 3.8 % ID/g

**Q.** And the Drug uptake (Thymus [5])?
**A.** 1.6 % ID/g

**Q.** And the Drug uptake (Liver [6])?
**A.** 3.04 % ID/g

**Q.** What about the Drug uptake (Thymus [7]) of the same compound?
**A.** 1.57 % ID/g

**Q.** And the Drug uptake (Lung [8])?
**A.** 1.11 % ID/g

**Q.** What about the Drug uptake (Heart [9]) of the same compound?
**A.** 1.7 % ID/g

**Q.** And the Drug uptake (Rattus norvegicus [10])?
**A.** 0.52 % ID/g

**Q.** What about the Drug uptake (Cerebellum [11]) of the same compound?
**A.** 0.53 % ID/g

**Q.** What about the Drug uptake (Cortex) of the same compound?
**A.** 1.67 % ID/g

**Q.** And the Drug uptake (Rattus norvegicus [12])?
**A.** 2.43 % ID/g

**Q.** What about the Drug uptake (Thymus [13]) of the same compound?
**A.** 1.48 % ID/g

**Q.** What about the Drug uptake (Femur) of the same compound?
**A.** 0.88 % ID/g

**Q.** And the Drug uptake (Cerebellum [14])?
**A.** 0.64 % ID/g

**Q.** What about the Drug uptake (Heart [15]) of the same compound?
**A.** 0.75 % ID/g

**Q.** And the Drug uptake (Adrenal [16])?
**A.** 7.63 % ID/g

**Q.** What about the Drug uptake (Rattus norvegicus [17]) of the same compound?
**A.** 1.19 % ID/g

**Q.** And the Drug uptake (Kidney [18])?
**A.** 2.06 % ID/g

**Q.** What about the Drug uptake (Harderian gland [19]) of the same compound?
**A.** 2.87 % ID/g

**Q.** What about the Drug uptake (Rattus norvegicus [20]) of the same compound?
**A.** 8.54 % ID/g

**Q.** What about the Drug uptake (Liver [21]) of the same compound?
**A.** 2.54 % ID/g

**Q.** What about the Drug uptake (Pituitary gland [22]) of the same compound?
**A.** 1.76 % ID/g

**Q.** What about the Drug uptake (Muscle tissue [23]) of the same compound?
**A.** 0.9 % ID/g

**Q.** What about the Drug uptake (Rattus norvegicus [24]) of the same compound?
**A.** 3.11 % ID/g

**Q.** What about the Drug uptake (Kidney [25]) of the same compound?
**A.** 1.19 % ID/g

**Q.** What about the Drug uptake (Rattus norvegicus [26]) of the same compound?
**A.** 0.47 % ID/g

**Q.** And the Drug uptake (Hippocampus)?
**A.** 1.3 % ID/g

**Q.** What about the Drug uptake (Muscle tissue [27]) of the same compound?
**A.** 0.94 % ID/g

**Q.** And the Drug uptake (Spleen [28])?
**A.** 1.06 % ID/g

**Q.** And the Drug uptake (Harderian gland [29])?
**A.** 1.68 % ID/g

**Q.** And the Drug uptake (Spleen [30])?
**A.** 1.21 % ID/g

**Q.** And the Drug uptake (Rattus norvegicus [31])?
**A.** 0.5 % ID/g

**Q.** What about the Drug uptake (Muscle tissue [32]) of the same compound?
**A.** 0.52 % ID/g

**Q.** And the Drug uptake (Muscle tissue [33])?
**A.** 0.59 % ID/g

**Q.** What about the Drug uptake (Thymus [34]) of the same compound?
**A.** 1.46 % ID/g

**Q.** What about the Drug uptake (Pancreas) of the same compound?
**A.** 1.43 % ID/g

**Q.** And the Drug uptake (Rattus norvegicus [35])?
**A.** 1.52 % ID/g

**Q.** What about the Drug uptake (Lung [36]) of the same compound?
**A.** 1.44 % ID/g
